Read-outs that look alike come from different tables or passages of the source.
Tests used:
Type in all cases: cell-based
HIV-1 HBX2 (wild type) = test: High throughput cytopathic effect assay in MT-4 cells, wild type HIV-1
Excerpt: (§1) Compounds were screened in a miniaturized, high throughput cytopathic effect assay for activity against HIV-1 HBX2 (wild type) and HIV-1 reverse transcriptase mutants K103N and Y181C. In Tables 1 and 2 below. “w.t.” refers to results of the tested compounds run with the wildtype 1 and “w.t, assay 2” refers results of the tested compounds run with the wildtype on the same day as the testing of the compounds with the mutants. Thus, “w.t, assay 2” was run under the same conditions as the testing of the compounds with the mutants and provides a direct comparison with the results from the testing with the mutants.
(§2) Ten-point serial dilutions of compounds with half-log step size were generated in DMSO. AZT ([…]) was used as the positive control and DMSO as the negative control. The Echo acoustic dispenser was used to deliver 200 nL of serially diluted compound into sterile 384 well tissue culture assay plates. Two million MT-4 cells were incubated with each of the 3 viruses at MOI of 0.0005 in separate 1 mL infection tubes for 1 hour at 37° C. The cells were diluted in cell culture medium (RPMI+10% FBS) to 50.000 cells/mL. The infected cells were added to 384 well assay plates containing serially dilute compounds. Assay plates were incubated for 5 days in a humidified incubator set at 37° C. and 5% CO2. To measure the cytopathic effect of HIV, 40 μL Cell TiterGlo was added to each well and the resulting luminescence signal is read with the Envision plate reader (Perkin Elmer). Data were normalized to positive and negative controls in each plate and expressed as % CPE Protection. EC50 values were defined as the compound concentration that caused a 50% decrease in luminescence signal, and were calculated by non-linear regression using Pipeline Pilot software by applying a four parameter fit equation (Accelrys, San Diego, Calif.).

[1] = system: HIV-1 reverse transcriptase mutant K103N; test: High throughput cytopathic effect assay in MT-4 cells, K103N mutant; settings: for EC50: Human immunodeficiency virus 1, MT4, 120 h, read-out: MT4 EC50 (nM) against K103N; for FC against mutant K103N: fold change of MT4 EC50 versus w.t. assay 2
Excerpt: as §1, §2

[2] = system: HIV-1 reverse transcriptase mutant Y181C; test: High throughput cytopathic effect assay in MT-4 cells, Y181C mutant; settings: for EC50: Human immunodeficiency virus 1, MT4, 120 h, read-out: MT4 EC50 (nM) against Y181C; for FC against mutant Y181C: fold change of MT4 EC50 versus w.t. assay 2
Excerpt: as §1, §2

[3] = Human immunodeficiency virus 1, MT4, 120 h, MT-4 cells, 5 days, cytopathic effect, Cell TiterGlo, read-out: MT4 EC50 (nM) against w.t.
[4] = Human immunodeficiency virus 1, MT4, read-out: MT4 EC50 (nM) against w.t. assay 2

SMILES | EC50 (HIV-1 HBX2 (wild type); [3]) [nM] | EC50 (HIV-1 HBX2 (wild type); [4]) [nM] | EC50 [1] [nM] | FC against mutant K103N [1] | EC50 [2] [nM] | FC against mutant Y181C [2] | EC50 (HIV-1 HBX2 (wild type); Human immunodeficiency virus 1, MT4, 120 h, read-out: MT4 EC50 (nM) against w.t.) [nM]
CC(C#N)=Cc1cc(C)c(-c2cccc3c(N)nc(Nc4ccc(C#N)cc4)nc23)c(C)c1 (racemic) [Compound 40, 4-((4-Amino-8-(4-(2-cyanoprop-1-en-1-yl)-2,6-dimethylphenyl)quinazolin-2-yl)amino)benzonitrile] | 6.8 | 9.9 | 16.3 | 1.7 | 36.1 | 3.7 | –
Cc1cc(/C=C/C#N)cc(C)c1-c1cccc2c(NCC3CC3)nc(Nc3ccc(C#N)cc3)nc12 [Compound 6, (E)-4-((8-(4-(2-Cyanovinyl)-2,6-dimethylphenyl)-4-((cyclopropylmethyl)amino)quinazolin-2-yl)amino)benzonitrile] | 99.3 | 82.6 | 81.1 | 1.0 | 470 | 5.7 | –
CCCCNc1nc(Nc2ccc(C#N)cc2)nc2c(-c3c(C)cc(/C=C/C#N)cc3C)cccc12 [Compound 7, (E)-4-((4-(Butylamino)-8-(4-(2-cyanovinyl)-2,6-dimethylphenyl)quinazolin-2-yl)amino)benzonitrile] | 122 | 117 | 130 | 1.1 | > 500 | >4.3 | –
N#C/C=C/c1cc(F)c(-c2cccc3c(N)nc(Nc4ccc(C#N)cc4)nc23)c(F)c1 [Compound 8, (E)-4-((4-Amino-8-(4-(2-cyanovinyl)-2,6-difluorophenyl)quinazolin-2-yl)amino)benzonitrile] | 2.7 | 2.8 | 3.7 | 1.3 | 21.7 | 7.8 | –
Cc1cc(/C=C/C#N)cc(C)c1-c1cc(F)cc2cnc(Nc3ccc(C#N)cn3)nc12 [Compound 14, (E)-6-((8-(4-(2-Cyanovinyl)-2,6-dimethylphenyl)-6-fluoroquinazolin-2-yl)amino)nicotinonitrile] | 8.1 | 12.7 | 15.1 | 1.2 | 122 | 9.6 | –
Cc1cc(Nc2nc(N)c3cccc(-c4c(C)cc(/C=C/C#N)cc4C)c3n2)nc(C)c1C#N [Compound 15, (E)-6-((4-Amino-8-(4-(2-cyanovinyl)-2,6-dimethylphenyl)quinazolin-2-yl)amino)-2,4-dimethylnicotinonitrile] | 22.6 | 33.2 | 72.2 | 2.2 | 180 | 5.4 | –
Cc1cc(/C=C/C#N)cc(C)c1-c1cccc2c(N)nc(Nc3ccc(C#N)c(C)n3)nc12 [Compound 16, (E)-6-((4-Amino-8-(4-(2-cyanovinyl)-2,6-dimethylphenyl)quinazolin-2-yl)amino)-2-methylnicotinonitrile] | 6.3 | 7.5 | 12.5 | 1.7 | 42.6 | 5.7 | –
Cc1cc(C#N)cnc1Nc1nc(N)c2cccc(-c3c(C)cc(/C=C/C#N)cc3C)c2n1 [Compound 17, (E)-6-((4-Amino-8-(4-(2-cyanovinyl)-2,6-dimethylphenyl)quinazolin-2-yl)amino)-5-methylnicotinonitrile] | 229 | 190 | 151 | 0.8 | > 500 | >2.6 | –
Cc1cc(Nc2nc(N)c3cccc(-c4c(C)cc(/C=C/C#N)cc4C)c3n2)ncc1C#N [Compound 18, (E)-6-((4-Amino-8-(4-(2-cyanovinyl)-2,6-dimethylphenyl)quinazolin-2-yl)amino)-4-methylnicotinonitrile] | 21.9 | 13.1 | 12.1 | 0.9 | 112 | 8.6 | –
Cc1cc(/C=C/C#N)cc(C)c1-c1cc(Cl)cc2c(N)nc(Nc3ccc(C#N)cc3)nc12 [Compound 19, (E)-4-((4-Amino-6-chloro-8-(4-(2-cyanovinyl)-2,6-dimethylphenyl)quinazolin-2-yl)amino)benzonitrile] | 27.5 | 29 | 30.3 | 1.0 | 79.7 | 2.7 | –
Cc1cc(/C=C/C#N)cc(C)c1-c1cc(F)cc2c(N)nc(Nc3ccc(C#N)cn3)nc12 [Compound 20, (E)-6-((4-Amino-8-(4-(2-cyanovinyl)-2,6-dimethylphenyl)-6-fluoroquinazolin-2-yl)amino)nicotinonitrile] | 7 | 6.6 | 7.1 | 1.1 | 69.9 | 10.5 | –
Cc1cc(-c2c(C)cc(/C=C/C#N)cc2C)c2nc(Nc3ccc(C#N)cn3)nc(N)c2c1 [Compound 21, (E)-6-((4-Amino-8-(4-(2-cyanovinyl)-2,6-dimethylphenyl)-6-methylquinazolin-2-yl)amino)nicotinonitrile] | 10.1 | 10.6 | 10.8 | 1.0 | 187 | 17.6 | –
Cc1cc(/C=C/C#N)cc(C)c1-c1cc([N+](=O)[O-])cc2c(N)nc(Nc3ccc(C#N)cn3)nc12 [Compound 22, (E)-6-((4-Amino-8-(4-(2-cyanovinyl)-2,6-dimethylphenyl)-6-nitroquinazolin-2-yl)amino)nicotinonitrile] | 69.3 | 87.5 | 101 | 1.2 | > 500 | >5.7 | –
Cc1cc(/C=C/C#N)cc(C)c1-c1cc(N)cc2c(N)nc(Nc3ccc(C#N)cn3)nc12 [Compound 23, (E)-6-((4,6-Diamino-8-(4-(2-cyanovinyl)-2,6-dimethylphenyl)quinazolin-2-yl)amino)nicotinonitrile] | 8.7 | – | – | – | – | – | –
COc1cc(-c2c(C)cc(/C=C/C#N)cc2C)c2nc(Nc3ccc(C#N)cn3)nc(N)c2c1 [Compound 24, (E)-6-((4-Amino-8-(4-(2-cyanovinyl)-2,6-dimethylphenyl)-6-methoxyquinazolin-2-yl)amino)nicotinonitrile] | – | 27.8 | 32.5 | 1.2 | 478 | 17.2 | 27.8
Cc1cc(/C=C/C#N)cc(C)c1-c1cc(Br)cc2c(N)nc(Nc3ccc(C#N)cc3)nc12 [Compound 25, (E)-4-((4-Amino-6-bromo-8-(4-(2-cyanovinyl)-2,6-dimethylphenyl)quinazolin-2-yl)amino)benzonitrile] | 39.1 | 28.3 | 44.1 | 1.6 | 160 | 5.6 | –
Cc1cc(/C=C/C#N)cc(C)c1-c1cc(F)cc2c(N)nc(Nc3cnc(C#N)cn3)nc12 [Compound 26, (E)-5-((4-Amino-8-(4-(2-cyanovinyl)-2,6-dimethylphenyl)-6-fluoroquinazolin-2-yl)amino)pyrazine-2-carbonitrile] | 2.7 | 2 | 2.4 | 1.2 | 27.2 | 13.5 | –
Cc1cc(/C=C/C#N)cc(C)c1-c1cc(F)cc2c(N)nc(Nc3ccc(C#N)nn3)nc12 [Compound 27, (E)-6-((4-Amino-8-(4-(2-cyanovinyl)-2,6-dimethylphenyl)-6-fluoroquinazolin-2-yl)amino)pyridazine-3-carbonitrile] | 6.3 | 3.8 | 5.3 | 1.4 | 400 | 105.9 | –
COc1ccc(-c2c(C)cc(/C=C/C#N)cc2C)c2nc(Nc3ccc(C#N)cc3)nc(N)c12 [Compound 28, (E)-4-((4-Amino-8-(4-(2-cyanovinyl)-2,6-dimethylphenyl)-5-methoxyquinazolin-2-yl)amino)benzonitrile] | 11.4 | 9.1 | 14.3 | 1.6 | 57.2 | 6.3 | –
COc1ccc(-c2c(C)cc(/C=C/C#N)cc2C)c2nc(Nc3ccc(C#N)cn3)nc(N)c12 [Compound 29, (E)-6-((4-Amino-8-(4-(2-cyanovinyl)-2,6-dimethylphenyl)-5-methoxyquinazolin-2-yl)amino)nicotinonitrile] | 22.1 | 18.6 | 33.4 | 1.8 | > 500 | >26.9 | –

— patent US10548898B2, “Quinazoline compounds” (Gilead Sciences, Inc., priority 2014, dated 2020)
